# Tested on: 922993-354-T-J3-PDC complex spheroids, viability, % test/control
# Assay: Anticancer human tumor 922993-354-T-J3-PDC patient-derived endometrial carcinoma cell line growth inhibition [CLK]
# Conditions: for IC50: curve of first compound; for viability, T/C: stronger effect = lower value
# Method in brief: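 Multi-cell-type spheroids combined patient-derived tumor cells with HUVEC endothelial cells and human mesenchymal stem cells. Paired agents were dosed in half-log steps down from about clinical Cmax, or from 10 microM where Cmax was unknown.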
# 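Further: spheroids exposed to the agents for 7 days before readout.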
structure (smiles),measurement,setting,value
CC1COCCN1c1cc(C2(S(C)(=N)=O)CC2)nc(-c2ccnc3[nH]ccc23)n1 (configuration not stated) + CNC(=O)c1ccc(Nc2nc(OC3CCCC3)c3c(-c4ccc5nc(C)oc5c4)c[nH]c3n2)c(OC)c1,IC50,second compound 0.0316 µM,> 10 µM
same,IC50,second compound 0.1 µM,> 10 µM
same,IC50,second compound 0.316 µM,> 10 µM
same,IC50,second compound 1 µM,< 0.0316 µM
same,IC50,second compound 3.16 µM,< 0.0316 µM
same,IC50,second compound 10 µM,< 0.0316 µM
same,"viability, T/C","second compound 0.0316 µM, first compound 0.0316 µM",88.2%
same,"viability, T/C","second compound 0.0316 µM, first compound 0.1 µM",108%
same,"viability, T/C","second compound 0.0316 µM, first compound 0.316 µM",98.8%
same,"viability, T/C","second compound 0.0316 µM, first compound 1 µM",115%
same,"viability, T/C","second compound 0.0316 µM, first compound 3.16 µM",106%
same,"viability, T/C","second compound 0.0316 µM, first compound 10 µM",104%
same,"viability, T/C","second compound 0.1 µM, first compound 0.0316 µM",111%
same,"viability, T/C","second compound 0.1 µM, first compound 0.1 µM",119%
same,"viability, T/C","second compound 0.1 µM, first compound 0.316 µM",115%
same,"viability, T/C","second compound 0.1 µM, first compound 1 µM",116%
same,"viability, T/C","second compound 0.1 µM, first compound 3.16 µM",101%
same,"viability, T/C","second compound 0.1 µM, first compound 10 µM",80.5%
same,"viability, T/C","second compound 0.316 µM, first compound 0.0316 µM",67.4%
same,"viability, T/C","second compound 0.316 µM, first compound 0.1 µM",56%
same,"viability, T/C","second compound 0.316 µM, first compound 0.316 µM",55%
same,"viability, T/C","second compound 0.316 µM, first compound 1 µM",66.9%
same,"viability, T/C","second compound 0.316 µM, first compound 3.16 µM",75.9%
same,"viability, T/C","second compound 0.316 µM, first compound 10 µM",40.5%
same,"viability, T/C","second compound 1 µM, first compound 0.0316 µM",35.2%
same,"viability, T/C","second compound 1 µM, first compound 0.1 µM",33.1%
same,"viability, T/C","second compound 1 µM, first compound 0.316 µM",34.1%
same,"viability, T/C","second compound 1 µM, first compound 1 µM",34.7%
same,"viability, T/C","second compound 1 µM, first compound 3.16 µM",27%
same,"viability, T/C","second compound 1 µM, first compound 10 µM",14.7%
same,"viability, T/C","second compound 3.16 µM, first compound 0.0316 µM",34.1%
same,"viability, T/C","second compound 3.16 µM, first compound 0.1 µM",32.8%
same,"viability, T/C","second compound 3.16 µM, first compound 0.316 µM",31.1%
same,"viability, T/C","second compound 3.16 µM, first compound 1 µM",32.3%
same,"viability, T/C","second compound 3.16 µM, first compound 3.16 µM",21.1%
same,"viability, T/C","second compound 3.16 µM, first compound 10 µM",9.92%
same,"viability, T/C","second compound 10 µM, first compound 0.0316 µM",32%
same,"viability, T/C","second compound 10 µM, first compound 0.1 µM",27.5%
same,"viability, T/C","second compound 10 µM, first compound 0.316 µM",28.2%
same,"viability, T/C","second compound 10 µM, first compound 1 µM",27.5%
same,"viability, T/C","second compound 10 µM, first compound 3.16 µM",20.6%
same,"viability, T/C","second compound 10 µM, first compound 10 µM",9.29%
